24 compounds from patent publication US20140288110A1, “PPAR MODULATORS” (EVOLVA SA, priority 2006, published 2014) can be followed below.

The structures appear in SMILES notation.

The test system of one test is 3T3-L1 / MEFs. Nature of the test: Adipocyte differentiation assay, induction, Oil Red O staining. The settings on record: for Adip.: adipocyte differentiation relative to DPD (SN1), Oil Red O staining; for induction of adipocyte differentiation (red staining), in words: induction assay, Oil Red O. Further details: key to Adip.: 0: representing similar results to DPD; −1: representing even less adipocyte differentiation; +1: representing more adipocyte differentiation (both relative to DPD). It is filed as cell-based, mouse. On the procedure:
This example describes an assay for determining adipocyte differention. Compounds are tested to see whether they induce adipocyte differentiation and also to see whether they inhibit adipocyte differention.
MEFs were grown in AmnioMax basal medium (Gibco) supplemented with 7.5% Amniomax supplement C-100 (Gibco), 7.5% Fetal Bovine Serum (FBS), 2 mM Glutamine, 62.5 μg/ml penicillin and 100 μg/ml Streptomycin (growth medium). At confluence, MEFs were induced to differentiation in growth medium with the addition of 1 microM dexamethasone (Sigma) 0.5 mM isobutylmethylxanthine (Sigma), 5 microg/ml insulin (Sigma) and 10 microM test compound dissolved in DMSO or DMSO alone. Medium was subsequently renewed every 48 hrs with growth media supplemented with 5 microg/ml Insulin and ligand or DMSO.
Briefly, to test compounds as inducers of adipocyte differentiation, 3T3-L1 are grown to confluence in DMEM with 10% Calf serum (CS), typically in 24 well dishes. At 2 days post confluence (day 0), cells are induced to differentiate with DMEM supplemented with 10% fetal bovine serum (FBS), 1 μM dexamethasone and the test compound ([…], 1 and 10 microM). BRL49653 (1.0 μM dissolved in 100% Me2SO) is used as a positive control. After 48 h, the cells are re-fed with DMEM containing 10% FBS supplemented with the test compound or the positive control. From day 4, cells are grown in DMEM with 10% FBS and are changed every second day until day 8. At day 8, cells are stained with Oil Red O as described below.
Cells cultured as described above are used for Oil Red staining. Dishes are washed in PBS and cells were fixed in 3.7% paraformaldehyde for 1 h and stained with oil red O as described in (Hansen et al 1999). Oil red O solution stock solution is prepared by dissolving 0.5 g of Oil Red O (Sigma) in 100 ml of isopropanol. Oil re O working solution is prepared by diluting a stock solution with water (6:4) followed by filtration.
Table II summarizes results obtained with different analogs of DPD (SN1), “0” representing similar results to DPD, “−1” representing even less adipocyte differentiation, “+1” representing more adipocyte differentiation (both relative to DPD) and “−” meaning not assayed.

Test [1] has as its system PPARgamma ligand-binding domain (Gal4-PPARgammaLBD). Nature of the test: PPARgamma transactivation assay (Gal4-PPARgammaLBD, UASx4-TK luc reporter). It is filed as cell-based. As to conditions: for PPAR: PPARgamma activating activity compared with 10 microM DPD (SN1). The text has this: This is an example of a transactivation assay for determining PPAR gamma modulating activity.
The UASx4-TK-luc reporter construct (where UAS refers to “upstream activator sequence”) contains four Gal4-responsive elements. The plasmid Gal4-PPARgammaLBD encodes a Gal4-DBD-PPARgamma-LBD fusion protein (i.e. the DNA-binding domain, DBD, of Gal4 fused to the ligand-binding domain, LBD, of PPARgamma) capable of transactivating the UASx4-TK-luc reporter plasmid by binding to the UAS. The CMV-beta-galactosidase plasmid (where CMV is cytomegalovirus) is used for normalization of experimental values.
The cells were replated, typically in 24 well plates, so that at the time of transfection the cells are 50-70% confluent.
Briefly, per well in a 24 well plate, UASx4TKluc (0.2 microg) Gal4-PPARgammaLBD (or pM-hPPARgamma-LBD; 0.1 microg) and CMV-beta-galactosidase (0.05 microg) in 30 μL DMEM (free of serum and antibiotics) is mixed with 30 microL DMEM (free of serum and antibiotics) containing 1 microL metafectenein. The mixture is incubated at room temperature for 20 min to allow formation of nucleic acid-lipid complexes and then approximately 60 microL is added to each well containing the 50-60% confluent cells. […] Cells were harvested after 12-24 hours and luciferase and beta-galactosidase activities were measured according to standard protocols.
“−” means that testing was not performed.

The target in another test is T1, mPPARalphaLBD (Mus musculus, UniProt P23204).
T1 construct: expressed in transfected cells
T1 sequence (P23204 239-466 limits assumed): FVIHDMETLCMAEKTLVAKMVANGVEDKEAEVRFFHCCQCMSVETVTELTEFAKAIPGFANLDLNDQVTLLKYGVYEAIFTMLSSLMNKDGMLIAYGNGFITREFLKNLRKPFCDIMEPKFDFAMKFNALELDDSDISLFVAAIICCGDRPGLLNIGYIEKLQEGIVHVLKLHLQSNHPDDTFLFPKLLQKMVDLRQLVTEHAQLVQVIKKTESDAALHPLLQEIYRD
Nature of the test: PPARalpha transactivation assay (mPPARalphaLBD). It is filed as cell-based. On the procedure: This example describes a transactivation assay for determining PPARalpha modulating activity.
DPD and other ligands are tested for their ability to transactivate PPAR alpha essentially as described in Example 1.

In turn, `O=C(O)CC/C=C\C[C@@H]1COC(c2ccccc2F)O[C@@H]1c1ccccc1O` (mixture of isomers) [compound 4] yielded an Adip. in the test with 3T3-L1 / MEFs of 0.

With `O=C(O)CC/C=C\C[C@@H]1COC(c2cccc3c2OCO3)O[C@@H]1c1ccccc1O` (mixture of isomers) [compound 5], the PPAR entry in test [1] was “P−”. The compound further returned an Adip. in the test on 3T3-L1 / MEFs of 0.

In the case of `COc1ccc(Oc2ccccc2C2OC[C@@H](C/C=C\CCC(=O)O)[C@@H](c3ccccc3O)O2)cc1` (mixture of isomers) [compound 7], the “PPAR gamma modulating activity, in words” value in test [1] is reported as “higher potency”. For the same compound, in the test with 3T3-L1 / MEFs, the Adip. is on record as 0 and the “induction of adipocyte differentiation (red staining), in words” value was “low or no adipocyte differentiation”. As to `O=C(O)CC/C=C\C[C@@H]1COC(c2ccccc2-c2ccccc2)O[C@@H]1c1ccccc1O` (mixture of isomers) [compound 10], in test [1], the “PPAR gamma modulating activity, in words” value is listed as “PPAR gamma antagonist” and the PPAR result is reported as “Antagonist”. The compound further had an Adip. with 3T3-L1 / MEFs of 0. Compound `COc1cccc([C@H]2OC[C@@H](C/C=C\CCC(=O)O)[C@@H](c3ccccc3O)O2)c1OC` (mixture of isomers) [compound 19] showed an Adip. in the test on 3T3-L1 / MEFs of 0. With `CC(C)(Sc1ccc(CCN(CCCCC2CCCCC2)C(=O)NC2CCCCC2)cc1)C(=O)O` [GW7647, reference compound], the “increase of PPAR alpha transactivation” value at mPPARalphaLBD is “over 2 fold”. In the case of `O=C(O)CC/C=C\C[C@@H]1CO[C@H](c2ccccc2Cl)O[C@@H]1c1ccccc1O` [compound 1], the Adip. in the test on 3T3-L1 / MEFs was determined as 0. Still for that read-out and setting: the result for `O=C(O)CC/C=C\C[C@@H]1COC(c2cccc(Cl)c2Cl)O[C@@H]1c1ccccc1O` (stereo partly drawn) [compound 2] reads 0; that for `O=C(O)CC/C=C\C[C@@H]1COC2(CCCCC2)O[C@@H]1c1ccccc1O` [compound 6], 0. Take `O=C(O)CC/C=C\C[C@@H]1COC2(CCNCC2)O[C@@H]1c1ccccc1O` [compound 8]: the PPAR entry in test [1] was “Boc derivative Inactive”. Moreover, the Adip. in the test with 3T3-L1 / MEFs is reported as −1. The compound `O=C(O)CC/C=C\C[C@@H]1COC(c2cccc3ccccc23)O[C@@H]1c1ccccc1O` (stereo partly drawn) [compound 9] registered an Adip. with 3T3-L1 / MEFs of 0. Regarding `CCCCCC1OC[C@@H](C/C=C\CCC(=O)O)[C@@H](c2ccccc2O)O1` (stereo partly drawn) [compound 11], in the test on 3T3-L1 / MEFs, the Adip. result is on record as “+1”.

Consider `C/C=C/CC1OC[C@@H](C/C=C\CCC(=O)O)[C@@H](c2ccccc2O)O1` (stereo partly drawn) [compound 12], for which the Adip. in the test on 3T3-L1 / MEFs was −1. For `O=C(O)CC/C=C\C[C@@H]1COC(c2coc3ccc(Cl)cc3c2=O)O[C@@H]1c1ccccc1O` (stereo partly drawn) [compound 13], in test [1], the “PPAR gamma modulating activity, in words” value was “higher potency”. Moreover, in the test on 3T3-L1 / MEFs, the Adip. is reported as −1 and the “induction of adipocyte differentiation (red staining), in words” value is reported as “low or no adipocyte differentiation”. In turn, `COc1ccccc1[C@H]1OC[C@@H](C/C=C\CCC(=O)O)[C@@H](c2ccccc2O)O1` [compound 18] displayed an Adip. with 3T3-L1 / MEFs of −1. The same measure, in the same setting: the result for `CC(C)[C@H]1OC[C@@H](C/C=C\CCC(=O)O)[C@@H](c2ccccc2O)O1` [compound 20] reads 0; that for `O=C(O)CC/C=C\C[C@@H]1CO[C@H](C2CCCCC2)O[C@@H]1c1ccccc1O` [compound 21], 0; that for `O=C(O)CCC/C=C\C[C@@H]1CO[C@H](c2ccccc2Cl)O[C@@H]1c1ccccc1O` [compound 23], “+1”. In the case of `O=C(O)CC/C=C\C[C@@H]1COC(c2ccccc2Cl)O[C@@H]1c1ccccc1O` (stereo partly drawn) [compound 27], in test [1], the PPAR result is recorded as “Inactive”. Still for that read-out and setting: the result for `COc1ccccc1[C@H]1O[C@@H](c2c(Cl)cccc2Cl)OC[C@H]1C/C=C\CCC(=O)O` [compound 28] reads “Inactive”. In the test with 3T3-L1 / MEFs, `O=C(O)CCCCCCC[C@@H]1CO[C@H](c2ccccc2Cl)O[C@@H]1c1ccccc1O` [compound 31] yielded an Adip. of 0.

Regarding `CC1(C)OC[C@@H](C/C=C\CCCCC(=O)O)[C@@H](c2ccccc2O)O1` [compound 36], in test [1], the PPAR result was “Inactive”.

Regarding `COc1ccccc1[C@H]1OC(C)(C)OC[C@H]1C/C=C\CCCCC(=O)O` [compound 37], the PPAR entry in test [1] is “Inactive”. Besides, in the test with 3T3-L1 / MEFs, the Adip. was determined as 0.

As to `CN(CCOc1ccc(CC2SC(=O)NC2=O)cc1)c1ccccn1` (stereo not drawn) [rosiglitazone, reference compound], the “PPAR transactivation, fold higher than with DMSO alone” value in test [1] (Gal4-PPARgammaLBD, DPD at 10 microM) was “over 40 fold”.
